Data set [1] can be described thus: Acute toxicity test, single oral intragastric administration. It counts as in vivo. The note with it: Sprague-Dawley, rat, in vivo. The procedure:
(§1) In this experiment, all animals were randomly divided into 5 groups (5 animals/sex/group), received the drug at 97 mg/kg, 174 mg/kg, 312 mg/kg, 559 mg/kg, and 1000 mg/kg, respectively, and received signal intragastric administration orally. […] All animals received administration according to their latest weighed body weight. The drug was stirred for at least 10 min before administration, and continuously stirred during administration until the administration of the sample at this concentration was completed. The animals were fasted for 11 h to 12 h before administration and resumed eating approximately 2 h after administration, with no restriction on drinking water.
(§2) All animals underwent a comprehensive physical examination by a veterinarian before administration. During the acclimation period, cage-side observation was performed once or twice a day, and detailed clinical observation was performed once a day. During the experiment, cage-side observation was performed twice a day (once on the day of dissection), and detailed clinical observation was performed once or twice a day. All surviving animals were weighed once on the day of random grouping (Day-1), Day 1 (before administration), Day 3, Day 5, Day 7, and Day 8; and their 24±1-hour food consumption was measured once on Day 1 (Day 1 to Day 2), Day 2 (Day 2 to Day 3), and Day 6 (Day 6 to Day 7). At the end of the experimental (Day 8), all surviving animals were euthanized by carbon dioxide inhalation and abdominal aorta/vein bleeding and then subjected to gross anatomical examination. Animals that died during the experiment were also subjected to gross anatomical examination.

Data set [2] concerns SD rats. The data set is described as above. It is filed as in vivo. The note with it: female rats. The procedure: as §1, §2
The nature of data set [3]: TGA weight loss / thermal stability. It counts as physicochemical. The text has this:
TGA and DSC patterns were collected on a TA Q5000 thermogravimetric analyzer and a TA Discovery 2500 differential scanning calorimeter, respectively.
TGA results were collected on a TA Discovery 5500 thermogravimetric analyzer, and DSC results were collected on a TA Discovery 2500 differential scanning calorimeter.

Read-outs that look alike come from different tables or passages of the source.

`CC[S@@](=N)(=O)C[C@H]1CC[C@H](N(C)c2ncnc3[nH]ccc23)CC1` [Free crystal form A]: the LD50 at 7 d in data set [1] (oral, female rats, read-out: LD50 95% confidence interval) was 313 to 558 mg/kg; in data set [1] (oral, male rats, read-out: LD50 95% confidence interval), 429 to 818 mg/kg; in data set [1] (po, female rats, single intragastric administration, 7 d observation, read-out: LD50) it was 418 mg/kg; in data set [1] (po, male rats, single intragastric administration, 7 d observation, read-out: LD50), 592 mg/kg. Besides, in data set [1] (oral, male rats, read-out: maximum tolerance dose (MTD)), the maximal tolerated dose (MTD) at 7 d worked out at 312 mg/kg. Further, the maximum tolerance dose in data set [2] was 174 mg/kg. Also, the thermal stability result in data set [3] (comparison of TGA/DSC patterns) is “high”. The TGA weight loss in data set [3] (heated from room temperature to 180° C.) is listed as 1.7%.

As usually defined, the LD50 is the dose at which mortality reaches 50%. A word on the MTD: it is the highest dose tested that stayed within the study's limit of toxicity.

The values are drawn from US20260224573A1, “CRYSTAL FORM OF COMPOUND, AND PREPARATION METHOD AND USE THEREOF” (FELICAMED BIOTECHNOLOGY CO., LTD., priority 2023, published 2026).
